“And” between values parts separate entries of the source, which are not always exact repeats. Identical values can stand only once.
How the values were obtained:
[1] = tested on: SFK Y418 phosphorylation in naive CD8+ T cells; assay: TCR signaling, p-SFK (Y418) by flow cytometry; assay type: cell-based, mouse; settings: for p-SFK MFI, single replicates: 10 μM 4 h, Fig. 2D raw data, listed as CMP-182
Method: For assessing TCR signaling, single-cell suspensions of naïve (CD44^loCD62L^hi) lymph node CD8^+ T cells (isolated using the EasySep™ Mouse Naïve CD8^+ T cell Isolation Kit, Stemcell Technologies) were washed with ice-cold PBS supplemented with 2% (v/v) FBS and stained with fixable viable dye and fluorophore-conjugated antibodies to CD8 and CD4 on ice for 15 min. […] Cells were then incubated with 5 μg/ml hamster α-mouse CD3ε for 20 min on ice, washed with complete T cell medium supplemented with 1% (v/v) FBS, and then TCR cross-linked with goat α-hamster IgG (20 μg /ml, Sigma) for the indicated times at 37 °C. The reaction was terminated by the addition of paraformaldehyde (BD Cytofix™ Fixation Buffer) to a final concentration of 2% (v/v) on ice for 20 min. Fixed cells were washed in complete T cell medium/1% (v/v) FBS and permeabilised with 90% (v/v) methanol on ice for 30 min. Permeabilised cells were stained with fluorophore-conjugated antibodies to Y418 phosphorylated and activated SFKs (p-SFK; 1:100, Invitrogen) for 1 h at room temperature; p-SFK mean fluorescence intensities in CD8^+ T cells were determined by flow cytometry.

[2] = tested on: NK cells; assay: NK cell proliferation (CFSE dilution); assay type: cell-based, mouse; settings: IL-15, 96 h; 0.1 or 1 (µM in figure, µg/ml in legend)
Method: proliferation in vitro. a-b) NK cells from C57BL/6 male mice (n=3 per group) were expanded […]
µg/ml) or vehicle (1% v/v DMSO) in the absence of IL-15. a) NK cells were re-stimulated for 15 min with the indicated amounts of IL-15 and Y694 phosphorylated STAT-5 (p-STAT-5) mean fluorescence intensities (MFIs) determined by flow cytometry. b) Alternatively, NK cells were stained with carboxyfluorescein succinimidyl ester (CFSE, Invitrogen) and then re-stimulated with the indicated amounts of IL-15 for 96 h and NK cell proliferation (CFSE dilution) monitored by flow cytometry. c-d) NK cells from C57BL/6 male mice (n=3 per group) were expanded ex vivo in the presence of IL-15 and then pre-treated with CMP-182 (0.1 or 1 µg/ml) or vehicle in the absence of IL-15. NK cells were re-stimulated with either IL-12 (10 ng/ml) or IL-18 (100 ng/ml) or with α-NK1.1 or α-Ly49H for 4 h. NK cells were maintained in 10 ng/ml IL-15 throughout the 4 h incubation time. Percentages of c) IFN-γ+ and d) CD107A+ NK cells were determined by flow cytometry. In (a-d) results shown are means ± SEM and are representative of at least two independent experiments.

[3] = tested on: AT3 mammary tumors; assay: Tumor-infiltrating lymphocytes in AT3 tumors; assay type: in vivo, mouse; set-up: CD4 EM, individual mice / CD8 EM, individual mice / GRZMB, individual mice / B cells, individual mice / NK cells, individual mice / Tregs, individual mice / MDSCs, individual mice: unit not given here
Method: Tumor-bearing mice were sacrificed and tumors were excised and digested at 37 °C for 30 min using a cocktail of 1 mg/ml collagenase type IV (Worthington Biochemicals) and 0.02 mg/ml DNase I (Sigma-Aldrich) in DMEM supplemented with 2% (v/v) FBS. Cells were passed through a 70 μm cell strainer (BD Biosciences) twice and processed for flow cytometry. For assessing T cell activation, cells were surface stained with fluorophore-conjugated antibodies to CD62L, CD44, PD-1, and TIM-3. For the assessment of NK cells, B cells, myeloid-derived suppressor cells (MDSCs), dendritic cells (DCs), and tumor-associated macrophages, cells were surface stained with fluorophore-conjugated antibodies to NK1.1, TCRβ, CD19, CD11b, CD11c, F4/80, Ly6C and Ly6G. For the detection of intracellular cytokines TNF and IFNγ, T cells were stimulated with PMA (20 ng/ml; Sigma-Aldrich) and ionomycin (1 μg/ml; Sigma-Aldrich) in the presence of GolgiPlug™ and GolgiStop™ (BD Biosciences) for 4 h at 37 °C in complete T cell medium. For the intracellular detection of granzyme B, cells were processed untreated without the addition of BD GolgiPlug™ and BD GolgiStop™.

[4] = molecular target: T1, PTP1B (Homo sapiens, UniProt P18031); assay: Mode of inhibition and Ki, Lineweaver-Burk kinetic analysis with DiFMUP; assay type: biochemical
T1 construct: PTP1B, residues 1-321; made in house; host or cells: E. coli BL21(DE3)
T1 sequence (P18031 1-321): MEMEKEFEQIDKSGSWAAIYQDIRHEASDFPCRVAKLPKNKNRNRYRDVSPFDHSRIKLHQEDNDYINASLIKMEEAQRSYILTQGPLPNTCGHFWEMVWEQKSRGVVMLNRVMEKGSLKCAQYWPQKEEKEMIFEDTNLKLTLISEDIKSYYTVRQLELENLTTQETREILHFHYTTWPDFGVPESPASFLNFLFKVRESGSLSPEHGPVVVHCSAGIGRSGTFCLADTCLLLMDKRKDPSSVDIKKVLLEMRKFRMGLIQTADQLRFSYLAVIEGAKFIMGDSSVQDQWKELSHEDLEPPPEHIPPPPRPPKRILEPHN
Method: To determine the mode of inhibition, the reactions were initiated by the addition of enzyme (final concentration for PTP1B and PTPN2 was 0.05 nM) to the reaction mixtures (0.2 ml) containing various concentrations of DiFMUP with different concentrations of the inhibitor. […] The fluorescence signal was measured using a CLARIOstar Plus Microplate Spectrophotometer (BMG Labtech) using excitation and emission wavelength of 340 nm and 450 nm, respectively. Data were fitted using Prism GraphPad 9.2.0. For selectivity studies, the inhibition assay for other PTPs were performed under the same conditions as used for PTP1B and PTPN2 except with different DiFMUP concentration corresponding to the Km of the PTP studied.

[5] = AT-3 tumours, Figure 4E, listed as CMP-182
[6] = AT-3 tumours, Figure 4F, listed as CMP-182

Compound: CC(C)(O)CCOc1ccc2cc(O)c(N3CC(=O)NS3(=O)=O)c(F)c2c1 [Compound 182, 5-(1-Fluoro-3-hydroxy-7-(3-hydroxy-3-methylbutoxy)naphthalen-2-yl)−1,2,5-thiadiazolidin-3-one 1,1-dioxide]
- p-SFK MFI, single replicates ([1]; TCR cross-linking time 0): 92.6 and 93.9 and 88
- p-SFK MFI, single replicates ([1]; TCR cross-linking time 2): 252 (2×) and 216
- p-SFK MFI, single replicates ([1]; TCR cross-linking time 5): 211 and 192 and 269
- p-SFK MFI, single replicates ([1]; TCR cross-linking time 10): 178 and 172 and 193
- p-SFK, column mean ([1]; 10 uM, mean over all times, two-way ANOVA, Fig. 2D): 184.1
- p-SFK, group mean (Mean 2) ([1]; 10 uM, time 0, N 3, Fig. 2D): 91.5
- p-SFK, group mean (Mean 2) ([1]; 10 uM, time 2, N 3, Fig. 2D): 240
- p-SFK, group mean (Mean 2) ([1]; 10 uM, time 5, N 3, Fig. 2D): 224
- p-SFK, group mean (Mean 2) ([1]; 10 uM, time 10, N 3, Fig. 2D): 181
- TCR-induced SFK Y418 phosphorylation (p-SFK) ([1]; α-CD3/IgG crosslinking): enhanced
- NK cell proliferation [2]: did not enhance
- TILs in AT3 tumors ([3]; 10 mg/kg i.v.): increased TILs
- CD4 EM, individual mice [3, 5]: 3726.1 and 1503.32 and 2365.26 and 3607.46 and 1559.09
- CD8 EM, individual mice [3, 5]: 36747.8 and 11580.8 and 23763.5 and 22145.6 and 15367.2
- GRZMB, individual mice [3, 5]: 38 and 29.8 and 32 and 36.3 and 27.7
- PD-1 TIM-3, individual mice [3, 5]: 17.7 and 30.7 and 29.6 and 26.7 and 38
- B cells, individual mice [3, 6]: 10773 and 2554.29 and 3750.15 and 13582.9 and 3202.26
- MDSCs, individual mice [3, 6]: 17269.7 and 11457.4 and 14297.5 and 10691.6 and 5468.87
- NK cells, individual mice [3, 6]: 10197.4 and 4505.05 and 4177.56 and 6667.39 and 3703.02
- Tregs, individual mice [3, 6]: 857.48 and 533.579 and 888.636 and 1675.89 and 531.261
- mode of inhibition [4]: classic competitive inhibitor
